According to article PMC9336311 (Cell reports, 2022):

How the values were obtained:
CaMKII kinase domain [1] = molecular target: CaMKII kinase domain (Homo sapiens, UniProt Q9UQM7); experiment: Coupled kinase assay with Syntide-2 as substrate; type: biochemical; settings: saturating GluN2B S1303D or high levels of CaMKIIN
CaMKII kinase domain [2] = molecular target: CaMKII kinase domain (Homo sapiens, UniProt Q9UQM7, D135N); experiment: Fluorescence polarization competition assay against GluN2B; type: binding; settings: FP competition, up to low millimolar concentrations
CaMKII kinase domain (Homo sapiens, UniProt Q9UQM7, D135N), sequence (Q9UQM7 7-274 D135N): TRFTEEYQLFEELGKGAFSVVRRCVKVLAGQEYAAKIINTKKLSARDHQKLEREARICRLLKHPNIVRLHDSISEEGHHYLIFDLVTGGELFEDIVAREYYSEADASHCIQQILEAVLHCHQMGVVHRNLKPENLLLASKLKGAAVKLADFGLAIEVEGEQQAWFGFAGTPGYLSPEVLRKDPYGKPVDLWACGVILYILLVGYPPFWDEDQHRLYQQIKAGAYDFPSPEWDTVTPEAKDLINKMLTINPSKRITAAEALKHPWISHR

[3] = molecular target: CaMKII kinase domain (D135N) (Homo sapiens, UniProt Q9UQM7, D135N); experiment: ITC binding to D135N CaMKII kinase domain; settings: protein/peptide concentrations high enough to characterize a Kd of several hundred micromolar
CaMKII kinase domain (D135N), sequence (Q9UQM7 7-274 D135N): as above

CaMKII kinase domain (Homo sapiens, UniProt Q9UQM7), sequence (Q9UQM7 7-274): as the sequence (Q9UQM7 7-274 D135N) above, with N129D counted along it

| Sequence | effect on Syntide-2 phosphorylation (CaMKII kinase domain [1]) | competition with GluN2B peptide (CaMKII kinase domain [2]) | binding in ITC [3] |
| --- | --- | --- | --- |
| MSEILPYGEDKMGRFGADPEGSDLSFSCRLQDTNSFFAGNQAKRPPKLGQIGRAKRVVIEDDRIDDVLKGMGEKPPSGV [CaMKIIN] | completely inhibit |  |  |
| PLARTLSVAGLPGKK [Syntide-2] |  | could not be competed off | did not see any appreciable binding |
